The target in assay [1] is T1, 5-hydroxytryptamine receptor 1A (Homo sapiens, UniProt P08908).
T1 sequence (P08908 whole entry): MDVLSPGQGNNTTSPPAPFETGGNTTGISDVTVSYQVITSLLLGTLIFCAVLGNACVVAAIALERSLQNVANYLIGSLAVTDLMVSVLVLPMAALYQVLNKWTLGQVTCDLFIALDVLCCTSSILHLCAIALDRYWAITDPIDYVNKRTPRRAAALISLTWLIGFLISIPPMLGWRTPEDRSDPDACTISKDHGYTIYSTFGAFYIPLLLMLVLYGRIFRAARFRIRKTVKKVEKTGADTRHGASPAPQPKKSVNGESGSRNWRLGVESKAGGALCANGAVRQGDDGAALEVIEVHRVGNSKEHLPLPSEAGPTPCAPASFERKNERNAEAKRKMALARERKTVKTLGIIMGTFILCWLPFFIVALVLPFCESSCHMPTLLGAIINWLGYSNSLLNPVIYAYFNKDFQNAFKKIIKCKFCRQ

The next assay addresses D(3) dopamine receptor (Homo sapiens, UniProt P35462).
The target in the next assay is D(1A) dopamine receptor (Homo sapiens, UniProt P21728).
Sequence of D(1A) dopamine receptor (P21728 whole entry): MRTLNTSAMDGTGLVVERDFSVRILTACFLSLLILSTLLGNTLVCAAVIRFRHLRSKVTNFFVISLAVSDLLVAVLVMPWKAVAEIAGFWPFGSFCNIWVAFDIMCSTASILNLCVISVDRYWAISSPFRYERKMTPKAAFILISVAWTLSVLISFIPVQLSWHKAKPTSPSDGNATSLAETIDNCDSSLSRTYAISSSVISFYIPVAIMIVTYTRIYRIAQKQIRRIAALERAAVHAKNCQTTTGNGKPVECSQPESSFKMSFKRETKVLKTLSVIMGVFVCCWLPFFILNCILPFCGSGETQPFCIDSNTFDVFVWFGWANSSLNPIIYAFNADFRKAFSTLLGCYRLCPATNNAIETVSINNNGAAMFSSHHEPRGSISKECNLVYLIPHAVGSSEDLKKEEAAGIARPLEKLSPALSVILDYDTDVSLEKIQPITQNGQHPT
Assay [2] addresses Sodium-dependent noradrenaline transporter (Homo sapiens, UniProt P23975).
Assay [3] has as its target cGMP-inhibited 3',5'-cyclic phosphodiesterase 3A (Homo sapiens, UniProt Q14432). In kind it is functional.
In assay [4] the target is T2, Thromboxane A2 receptor (Homo sapiens, UniProt P21731).
T2 sequence (P21731 whole entry): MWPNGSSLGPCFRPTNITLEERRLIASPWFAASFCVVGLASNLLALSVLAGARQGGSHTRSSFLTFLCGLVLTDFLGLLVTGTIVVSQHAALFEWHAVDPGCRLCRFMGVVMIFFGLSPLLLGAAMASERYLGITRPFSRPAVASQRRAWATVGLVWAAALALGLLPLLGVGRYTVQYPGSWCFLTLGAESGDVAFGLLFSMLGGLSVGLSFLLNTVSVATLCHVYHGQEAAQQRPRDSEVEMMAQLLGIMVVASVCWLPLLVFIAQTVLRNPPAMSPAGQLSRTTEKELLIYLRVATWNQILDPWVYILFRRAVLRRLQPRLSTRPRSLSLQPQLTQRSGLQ
In kind it is functional, cell-based.

Assay [5] deals with Prostaglandin G/H synthase 1 (Homo sapiens, UniProt P23219). In kind it is functional.
The target of assay [6] is 3',5'-cyclic-AMP phosphodiesterase 4A (Homo sapiens, UniProt P27815). It counts as functional.
For a further assay, the target named is Prothrombin (Homo sapiens, UniProt P00734). In kind it is functional.
Assay [7] has as its target Sodium-dependent dopamine transporter (Homo sapiens, UniProt Q01959).
The target of assay [8] is T2, Thromboxane A2 receptor. In kind it is functional, cell-based. This is another data set of the same source.
The target in assay [9] is T3, Muscarinic acetylcholine receptor M2 (Homo sapiens, UniProt P08172).
T3 sequence (P08172 whole entry): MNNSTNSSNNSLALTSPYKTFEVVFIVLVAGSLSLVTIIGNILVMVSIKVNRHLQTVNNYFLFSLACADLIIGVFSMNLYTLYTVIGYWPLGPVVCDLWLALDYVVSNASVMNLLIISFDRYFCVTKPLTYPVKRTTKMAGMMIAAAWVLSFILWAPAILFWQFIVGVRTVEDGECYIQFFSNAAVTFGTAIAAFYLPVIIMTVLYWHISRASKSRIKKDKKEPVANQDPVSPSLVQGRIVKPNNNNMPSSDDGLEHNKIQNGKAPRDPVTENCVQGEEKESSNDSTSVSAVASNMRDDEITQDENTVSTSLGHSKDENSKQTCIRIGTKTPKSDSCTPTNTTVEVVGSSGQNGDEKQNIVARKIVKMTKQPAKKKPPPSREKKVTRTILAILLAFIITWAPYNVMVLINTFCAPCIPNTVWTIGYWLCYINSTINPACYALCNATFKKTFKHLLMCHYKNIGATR

Assay [10] concerns the target T4, Alpha-2A adrenergic receptor (Homo sapiens, UniProt P08913).
T4 sequence (P08913 whole entry): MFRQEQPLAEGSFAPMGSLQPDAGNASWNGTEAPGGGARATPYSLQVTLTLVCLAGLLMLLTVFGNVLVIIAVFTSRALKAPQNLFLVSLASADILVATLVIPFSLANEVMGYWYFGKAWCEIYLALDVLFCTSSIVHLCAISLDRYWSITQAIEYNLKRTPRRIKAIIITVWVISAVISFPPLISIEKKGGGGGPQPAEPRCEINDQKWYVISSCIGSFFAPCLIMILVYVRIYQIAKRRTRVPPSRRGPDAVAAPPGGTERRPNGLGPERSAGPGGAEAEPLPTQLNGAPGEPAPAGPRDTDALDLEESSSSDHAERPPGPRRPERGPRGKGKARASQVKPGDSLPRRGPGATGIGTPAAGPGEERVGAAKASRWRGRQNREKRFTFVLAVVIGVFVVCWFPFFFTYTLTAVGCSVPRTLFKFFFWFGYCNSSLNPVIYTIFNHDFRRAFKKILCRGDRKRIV

The target of assay [11] is T5, Amine oxidase [flavin-containing] A (Homo sapiens, UniProt P21397).
T5 sequence (P21397 whole entry): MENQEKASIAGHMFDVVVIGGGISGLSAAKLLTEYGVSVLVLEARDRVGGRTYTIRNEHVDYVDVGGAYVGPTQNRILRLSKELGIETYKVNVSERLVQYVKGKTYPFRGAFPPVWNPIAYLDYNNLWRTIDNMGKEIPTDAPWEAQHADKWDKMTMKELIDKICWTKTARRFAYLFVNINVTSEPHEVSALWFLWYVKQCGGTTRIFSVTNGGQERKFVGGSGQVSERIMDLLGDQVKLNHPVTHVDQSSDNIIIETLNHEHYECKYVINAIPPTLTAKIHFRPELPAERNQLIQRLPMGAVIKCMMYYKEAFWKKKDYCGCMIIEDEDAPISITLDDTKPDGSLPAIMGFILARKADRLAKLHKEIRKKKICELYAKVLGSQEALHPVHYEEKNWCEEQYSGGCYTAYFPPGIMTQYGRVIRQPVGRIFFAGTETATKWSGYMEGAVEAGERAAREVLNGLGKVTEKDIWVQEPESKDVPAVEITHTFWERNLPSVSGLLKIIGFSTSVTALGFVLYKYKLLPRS
In kind it is functional.

Assay [12] concerns the target 5-hydroxytryptamine receptor 2B (Homo sapiens, UniProt P41595). In kind it is functional, cell-based.
The next assay addresses Bile salt export pump (Homo sapiens, UniProt O95342). It counts as functional.
Further: assay procedure not described here.

Sequence of Sodium-dependent noradrenaline transporter (P23975 whole entry): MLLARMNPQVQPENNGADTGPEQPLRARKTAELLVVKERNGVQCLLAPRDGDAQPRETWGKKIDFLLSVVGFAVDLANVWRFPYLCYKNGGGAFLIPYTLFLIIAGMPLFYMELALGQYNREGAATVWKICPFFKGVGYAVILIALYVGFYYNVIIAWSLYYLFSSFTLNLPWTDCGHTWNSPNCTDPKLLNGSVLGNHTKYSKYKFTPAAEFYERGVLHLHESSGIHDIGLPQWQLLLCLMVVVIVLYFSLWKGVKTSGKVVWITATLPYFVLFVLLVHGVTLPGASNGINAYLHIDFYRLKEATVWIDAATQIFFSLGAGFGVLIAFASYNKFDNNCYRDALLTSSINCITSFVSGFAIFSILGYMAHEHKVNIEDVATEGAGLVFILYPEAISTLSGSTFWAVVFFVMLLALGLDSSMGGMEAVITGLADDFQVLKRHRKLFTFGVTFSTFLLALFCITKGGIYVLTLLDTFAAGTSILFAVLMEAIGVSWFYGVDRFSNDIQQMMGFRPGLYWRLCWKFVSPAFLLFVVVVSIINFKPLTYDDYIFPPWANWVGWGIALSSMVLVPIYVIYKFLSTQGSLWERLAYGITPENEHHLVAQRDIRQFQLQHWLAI
Sequence of Sodium-dependent dopamine transporter (Q01959 whole entry): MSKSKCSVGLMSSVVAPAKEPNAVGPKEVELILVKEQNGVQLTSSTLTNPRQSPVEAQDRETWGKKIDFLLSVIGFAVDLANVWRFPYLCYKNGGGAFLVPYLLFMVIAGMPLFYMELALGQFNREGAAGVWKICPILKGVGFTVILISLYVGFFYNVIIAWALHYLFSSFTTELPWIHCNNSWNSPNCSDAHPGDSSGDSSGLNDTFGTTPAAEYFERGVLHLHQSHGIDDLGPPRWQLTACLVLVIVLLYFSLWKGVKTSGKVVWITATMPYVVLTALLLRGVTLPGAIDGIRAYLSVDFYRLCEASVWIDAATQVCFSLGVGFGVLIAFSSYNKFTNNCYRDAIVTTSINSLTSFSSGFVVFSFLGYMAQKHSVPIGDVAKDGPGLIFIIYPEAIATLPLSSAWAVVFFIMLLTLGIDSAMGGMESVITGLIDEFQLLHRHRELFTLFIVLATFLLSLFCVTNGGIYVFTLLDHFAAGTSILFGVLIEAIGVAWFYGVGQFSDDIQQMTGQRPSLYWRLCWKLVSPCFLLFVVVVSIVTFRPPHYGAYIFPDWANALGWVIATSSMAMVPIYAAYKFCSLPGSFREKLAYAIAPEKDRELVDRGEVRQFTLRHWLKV
Sequence of Bile salt export pump (O95342 whole entry): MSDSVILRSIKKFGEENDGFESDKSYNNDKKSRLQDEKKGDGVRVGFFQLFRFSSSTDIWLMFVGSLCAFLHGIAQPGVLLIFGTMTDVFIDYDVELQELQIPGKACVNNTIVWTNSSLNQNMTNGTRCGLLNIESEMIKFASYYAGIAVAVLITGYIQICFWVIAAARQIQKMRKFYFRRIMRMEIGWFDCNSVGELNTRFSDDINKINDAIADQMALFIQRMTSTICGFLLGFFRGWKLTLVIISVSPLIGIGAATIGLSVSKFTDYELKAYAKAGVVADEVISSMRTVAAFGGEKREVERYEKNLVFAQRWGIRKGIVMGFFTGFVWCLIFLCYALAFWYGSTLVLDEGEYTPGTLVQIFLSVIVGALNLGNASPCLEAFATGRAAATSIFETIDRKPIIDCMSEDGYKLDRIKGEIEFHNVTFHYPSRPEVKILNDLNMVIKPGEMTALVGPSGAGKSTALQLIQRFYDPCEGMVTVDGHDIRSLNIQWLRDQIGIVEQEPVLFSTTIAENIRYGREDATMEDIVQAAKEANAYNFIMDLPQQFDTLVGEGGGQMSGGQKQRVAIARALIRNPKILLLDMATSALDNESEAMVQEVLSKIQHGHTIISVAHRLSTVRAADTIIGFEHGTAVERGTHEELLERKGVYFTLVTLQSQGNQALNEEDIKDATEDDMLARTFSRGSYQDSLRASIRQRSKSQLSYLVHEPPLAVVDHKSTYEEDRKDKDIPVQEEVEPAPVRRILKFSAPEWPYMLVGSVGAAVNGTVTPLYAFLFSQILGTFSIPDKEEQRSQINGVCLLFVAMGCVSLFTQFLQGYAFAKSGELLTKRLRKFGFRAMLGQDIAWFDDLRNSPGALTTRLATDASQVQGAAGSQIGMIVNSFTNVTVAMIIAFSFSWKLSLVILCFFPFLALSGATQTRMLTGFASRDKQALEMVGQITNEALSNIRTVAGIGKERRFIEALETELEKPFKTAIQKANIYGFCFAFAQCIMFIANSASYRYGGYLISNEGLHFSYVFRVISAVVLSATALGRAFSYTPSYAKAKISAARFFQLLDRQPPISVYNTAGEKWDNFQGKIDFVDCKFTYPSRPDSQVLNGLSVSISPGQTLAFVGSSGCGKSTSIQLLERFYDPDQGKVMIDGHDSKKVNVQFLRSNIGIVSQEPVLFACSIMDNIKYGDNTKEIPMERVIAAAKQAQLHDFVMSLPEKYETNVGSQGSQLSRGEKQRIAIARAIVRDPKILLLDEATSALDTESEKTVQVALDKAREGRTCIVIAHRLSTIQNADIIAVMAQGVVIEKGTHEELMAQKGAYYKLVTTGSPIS
Sequence of cGMP-inhibited 3',5'-cyclic phosphodiesterase 3A (Q14432 whole entry): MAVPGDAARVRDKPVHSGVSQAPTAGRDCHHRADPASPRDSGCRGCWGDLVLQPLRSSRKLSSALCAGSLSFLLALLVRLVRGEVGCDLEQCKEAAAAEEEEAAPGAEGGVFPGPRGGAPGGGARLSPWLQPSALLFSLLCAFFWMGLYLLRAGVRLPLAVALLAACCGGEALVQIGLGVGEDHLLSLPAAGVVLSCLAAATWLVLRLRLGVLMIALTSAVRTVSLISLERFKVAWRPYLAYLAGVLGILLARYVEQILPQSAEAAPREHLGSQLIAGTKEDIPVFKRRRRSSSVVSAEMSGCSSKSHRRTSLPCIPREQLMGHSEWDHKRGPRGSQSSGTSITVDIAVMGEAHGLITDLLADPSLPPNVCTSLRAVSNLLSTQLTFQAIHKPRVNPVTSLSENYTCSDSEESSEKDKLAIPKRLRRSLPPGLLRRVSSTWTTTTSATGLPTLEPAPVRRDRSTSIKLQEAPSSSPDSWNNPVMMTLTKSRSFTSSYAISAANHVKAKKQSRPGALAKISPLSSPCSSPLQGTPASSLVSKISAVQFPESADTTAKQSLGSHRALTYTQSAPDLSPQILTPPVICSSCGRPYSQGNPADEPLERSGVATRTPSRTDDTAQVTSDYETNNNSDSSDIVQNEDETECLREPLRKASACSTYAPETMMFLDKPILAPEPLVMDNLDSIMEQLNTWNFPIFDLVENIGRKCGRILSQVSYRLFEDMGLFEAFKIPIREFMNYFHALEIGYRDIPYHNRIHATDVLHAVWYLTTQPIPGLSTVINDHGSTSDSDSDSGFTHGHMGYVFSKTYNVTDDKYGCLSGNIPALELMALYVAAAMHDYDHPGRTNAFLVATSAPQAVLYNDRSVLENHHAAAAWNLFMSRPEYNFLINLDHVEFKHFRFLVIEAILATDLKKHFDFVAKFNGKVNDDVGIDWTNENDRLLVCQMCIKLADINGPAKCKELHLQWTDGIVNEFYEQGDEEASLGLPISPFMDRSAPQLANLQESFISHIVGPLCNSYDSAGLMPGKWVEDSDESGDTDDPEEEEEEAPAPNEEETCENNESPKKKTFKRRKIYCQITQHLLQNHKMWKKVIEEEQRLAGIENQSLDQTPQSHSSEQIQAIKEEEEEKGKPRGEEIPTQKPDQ
Sequence of D(3) dopamine receptor (P35462 whole entry): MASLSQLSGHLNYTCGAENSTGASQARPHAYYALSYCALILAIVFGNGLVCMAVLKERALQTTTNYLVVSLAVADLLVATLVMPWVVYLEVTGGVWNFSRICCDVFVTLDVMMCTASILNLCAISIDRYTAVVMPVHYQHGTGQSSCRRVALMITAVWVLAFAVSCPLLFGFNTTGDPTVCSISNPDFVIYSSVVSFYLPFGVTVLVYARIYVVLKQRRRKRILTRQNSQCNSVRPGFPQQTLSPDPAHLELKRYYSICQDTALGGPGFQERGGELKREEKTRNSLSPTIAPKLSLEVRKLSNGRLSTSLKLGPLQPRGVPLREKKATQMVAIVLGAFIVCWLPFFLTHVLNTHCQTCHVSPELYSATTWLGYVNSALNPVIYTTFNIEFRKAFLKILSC
Sequence of 5-hydroxytryptamine receptor 2B (P41595 whole entry): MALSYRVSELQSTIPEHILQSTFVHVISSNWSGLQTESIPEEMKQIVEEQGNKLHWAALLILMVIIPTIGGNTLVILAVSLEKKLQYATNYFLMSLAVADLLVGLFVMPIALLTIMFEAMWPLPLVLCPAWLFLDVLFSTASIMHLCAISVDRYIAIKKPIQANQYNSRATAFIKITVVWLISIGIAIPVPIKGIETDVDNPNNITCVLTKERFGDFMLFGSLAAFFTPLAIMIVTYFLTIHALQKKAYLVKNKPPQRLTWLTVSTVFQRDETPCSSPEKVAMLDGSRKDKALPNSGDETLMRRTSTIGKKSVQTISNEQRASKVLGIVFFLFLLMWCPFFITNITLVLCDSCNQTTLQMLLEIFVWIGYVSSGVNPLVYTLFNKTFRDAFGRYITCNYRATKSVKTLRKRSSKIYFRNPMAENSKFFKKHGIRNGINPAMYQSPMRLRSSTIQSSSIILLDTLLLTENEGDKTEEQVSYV

For the compound `CC(C)COc1ccc(CNC(=O)N(Cc2ccc(F)cc2)C2CCN(C)CC2)cc1` [PIMAVANSERIN], the AC50 was more than 30 µM in assay [1]; 2.66 µM on D(3) dopamine receptor; 5.78 µM at D(1A) dopamine receptor; 6.92 µM in assay [2]; more than 30 µM in assay [3]; 14.1 µM at Thromboxane A2 receptor [4]. For the same compound, the AC50 in [5] was more than 30 µM; in assay [6] it was more than 30 µM; on Prothrombin, more than 30 µM; in [7], 12.8 µM; on Thromboxane A2 receptor [8], more than 3 µM; in assay [9] it was 4.6 µM. The AC50 is more than 30 µM in assay [10], more than 30 µM in [11], more than 30 µM in assay [12] and 65 µM at Bile salt export pump.

As for `CC(C)[N+](C)(CCOC(=O)C1c2ccccc2Oc2ccccc21)C(C)C` [PROPANTHELINE], the AC50 (in [1]; at D(3) dopamine receptor; at D(1A) dopamine receptor; in assay [2]; in [3]; at Thromboxane A2 receptor [4]) was more than 30 µM each time. For the same compound, the AC50 in assay [5] is more than 30 µM; in [6], more than 30 µM; at Prothrombin, more than 30 µM; in assay [7] it was more than 30 µM; on Thromboxane A2 receptor [8], more than 30 µM; in assay [9], 0.003 µM. Besides, the AC50 in [10] was more than 30 µM; in assay [11] it was more than 30 µM; in assay [12] it was more than 30 µM; at Bile salt export pump, more than 300 µM.

On to `CNC(=O)c1cc(Oc2ccc(NC(=O)Nc3ccc(Cl)c(C(F)(F)F)c3)c(F)c2)ccn1` [REGORAFENIB], for which the AC50 in [1] is 1.42 µM; at D(3) dopamine receptor, more than 30 µM; on D(1A) dopamine receptor, 5.61 µM; in assay [2], 20 µM; in assay [3] it was more than 30 µM; on Thromboxane A2 receptor [4], more than 30 µM. Besides, the AC50 in [5] was 17.5 µM; in assay [6] it was more than 30 µM; at Prothrombin, more than 30 µM; in assay [7], 1.04 µM; at Thromboxane A2 receptor [8], 6.35 µM; in assay [9], more than 30 µM. The concentration at half-maximal activity (AC50) in assay [10] is more than 10 µM; in assay [11], more than 30 µM; in assay [12] it was more than 30 µM; on Bile salt export pump, 3 µM.

Take `NC(=O)NS(=O)(=O)c1ccc(N)cc1` [SULFACARBAMIDE]: the concentration at half-maximal activity (AC50) (in [1]; on D(3) dopamine receptor; on D(1A) dopamine receptor; in assay [2]; in [3]; on Thromboxane A2 receptor [4]) was more than 30 µM in each case. Besides, the AC50 (in assay [5]; in assay [6]; at Prothrombin; in assay [7]; on Thromboxane A2 receptor [8]; in assay [9]) was more than 30 µM in each case. For the same compound, the half-maximal activity concentration (AC50) in assay [10] is more than 30 µM; in assay [11] it was more than 30 µM; in assay [12] it was more than 30 µM; at Bile salt export pump it was more than 300 µM.

For `CC1(C)O[C@@H]2[C@@H](CO[C@@]3(COS(N)(=O)=O)OC(C)(C)O[C@@H]23)O1` [TOPIRAMATE], the AC50 (in assay [1]; at D(3) dopamine receptor; at D(1A) dopamine receptor; in [2]; in assay [3]; at Thromboxane A2 receptor [4]) was more than 30 µM each time. Further, the half-maximal activity concentration (AC50) (in [5]; in assay [6]; at Prothrombin; in assay [7]; on Thromboxane A2 receptor [8]; in assay [9]) was more than 30 µM throughout. The AC50 in assay [10] is more than 30 µM; in assay [11] it was more than 30 µM; in assay [12], more than 30 µM; at Bile salt export pump it was more than 300 µM.

(Values after ChEMBL document CHEMBL5291721, “A preclinical secondary pharmacology resource illuminates target-adverse drug reaction associations of marketed drugs” (Nat Commun, 2023).)
